The nature of data set [1]: Octanol/water partition coefficient (Log P(o/w)), shake flask method. The class given is physicochemical. To be noted: this work. The source says:
The succindiamides have large, positive Log P (o/w) values, meaning they favor the organic layer in an octanol/water biphasic system and are therefore more lipophilic.37 In contrast, the traditional dipolar aprotics have large, negative Log P (o/w) values so are more hydrophilic. […] Importantly, none of the succindiamide solvents have a Log P (o/w) above 4, the value that has been set as a threshold for bioaccumulation in the environment. […]
Equation S2. π = ν [DMSO]−ν [cyclohexane] […]
Determination of octanol/water partition coefficient (Log P(o/w))
Determination of the log P(o/w) was done by the shake flask method. 1.5 mL each of octanol and water were mixed in a 4 mL vial. 30 μL of the test solute and 10 μL of an internal standard (diglyme) were added and the mixture was shaken for 30 seconds and allowed to stand overnight. Samples (1 mL) were taken from both the aqueous and organic layers and added to 1.5 mL GC vials for GC analysis.
Log P(o/w) was obtained using Equation S5.

Data set [2] has as its target T1, TRβ (Homo sapiens, UniProt P10828).
T1 construct: expression construct for the full-length human receptor under investigation; expressed in transfected cells; host or cells: human U2-OS cells (ATCC HTB-96), stably transfected
T1 sequence (P10828 1-461): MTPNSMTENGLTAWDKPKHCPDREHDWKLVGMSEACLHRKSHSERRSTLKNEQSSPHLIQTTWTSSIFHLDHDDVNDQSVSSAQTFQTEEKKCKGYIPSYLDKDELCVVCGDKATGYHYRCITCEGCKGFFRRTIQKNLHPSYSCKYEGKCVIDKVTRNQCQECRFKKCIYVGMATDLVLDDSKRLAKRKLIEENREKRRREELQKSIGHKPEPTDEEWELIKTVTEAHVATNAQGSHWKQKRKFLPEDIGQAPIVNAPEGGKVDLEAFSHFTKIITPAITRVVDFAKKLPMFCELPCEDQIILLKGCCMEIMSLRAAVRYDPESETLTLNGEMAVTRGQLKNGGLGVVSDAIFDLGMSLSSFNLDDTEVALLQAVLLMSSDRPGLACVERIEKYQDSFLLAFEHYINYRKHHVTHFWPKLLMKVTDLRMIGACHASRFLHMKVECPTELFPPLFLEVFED
As to the kind of experiment: TRβ CALUX reporter gene assay. The data set is classed as cell-based. Also on record: key: –: no effect observed up to the highest test concentration. The note with it: PC10, 24 h exposure. The source says: (§1) 2-methylimidazole 99.0%, zinc(II) nitrate hexahydrate ≥99.0%, para-cymene 99.0%, 1,4-dioxane 99.8% (anhydrous), 4-nitroaniline ≥99.0%, 1-octanol ≥99.0%, diglyme ≥99.0%, DMSO-d6 (99.8% D) and chloroform-d (99.8% D) were purchased from Sigma-Aldrich. Toluene ≥99.0%, hexane ≥99.5%, DCM ≥99.5%, chloroform ≥99.5%, DMSO ≥99.0% were purchased from VWR. N,N-diethyl-4-nitroaniline ≥98.0% was purchased from Alfa Aeser. Cyrene was supplied by Circa group. N-butylpyrrolidinone was supplied by Eastman chemicals. N,N-dimethylformamide 99.9% and N,N-dimethylacetamide 99.9% were purchased from Fischer. The flakes of Ultrason® E3020 P Polyarylethersulfone of 55,000 Da were obtained from INGE.BASF, Germany. The CALUX cell lines have been described previously.[1] They are based on human U2-OS cells (ATCC, HTB-96) stably transfected with an expression construct for the full-length human receptor under investigation, and a reporter construct consisting of multimerized responsive elements for the cognate receptor coupled to a minimal promoter element (TATA) and a luciferase gene. Cells were maintained as described previously,[2] using cell culture media and supplements from Fisher Scientific as described in the experimental procedures section. […]
(§2) In vitro reporter gene assays
(§3) The automated CALUX assays were carried out similarly as described earlier,[12] with some adaptations. In brief, the assay was performed in CO2 independent medium (Fisher Scientific, […]
(§4) supplement (Fisher Scientific, 11574466), 10 U/mL penicillin and 10 µg/mL streptomycin. A cell suspension in assay medium was made of 1 × 10^5cells/mL, and white 384-wells plates were seeded with 30 µl cell suspension/well. After 24 h, exposure medium was prepared. A dilution series in 0.5log unit increments of each test compound (in DMSO) was added to a 96-wells plate containing assay medium (2% v/v). Of this exposure mixture, 30 µl was added to the assay plates containing the CALUX cells, resulting in a final DMSO concentration of 1%. Additionally, DMSO blanks and a full dose response curve of the relevant reference compound were included on each plate. All samples were tested in triplicate. The preparation of the compound dilution series as well as the exposure of the cells were performed on a Hamilton StarLET liquid handling robot coupled to a Cytomat incubator.
(§5) Directly after exposure, plates were sealed with non-breathing plate seals (Plate sealer, easy seal transparent; Greiner-Bio-One, 676001). After 24 h the exposure medium was removed using an EL406 washer-dispenser (BioTek) and 10 µl/well triton lysisbuffer was added by the EL406.
(§6) Subsequently, the luciferase signal was measured in a luminometer (InfinitePro coupled to a Connect Stacker, both TECAN). In order to be able to detect receptor antagonism, several assays were also performed in antagonistic mode. […]
(§7) The luminometer data was analysed as follows; the average of the triplicate wells was determined, and the average blank (DMSO) value was subtracted. […] For antagonist- and cytotoxicity experiments, PC20 values were determined instead, which was defined as the concentration where the test compound causes a 20% decrease in the basal signal, which was […]
(§8) curve, the signal induction above background (DMSO) was determined, and the concentration where the compound elicited a 1.5-fold increase above background was used as LEC.
In general terms: In a reporter assay the amount or activity of a reporter protein is the signal.

In data set [3] the target is T1, TRβ. The data set can be described thus: TRβ-anti CALUX reporter gene assay (antagonistic mode). The note with it: PC20, 24 h exposure. Also noted: key: –: no effect observed up to the highest test concentration. The data set is classed as cell-based.
Text: as §1, §2, §3, §4, §5, §6, §7, §8

For a further data set, the system named is TCF. As to the kind of experiment: TCF CALUX assay (Wnt signaling). The data set is classed as cell-based, human. Also noted: key: –: no effect observed up to the highest test concentration. To be noted: cell signaling pathway assay, 24 h exposure.
Text: Six of the CALUX assays (TCF through p53) detect activation of several cellular signaling pathways, which are indicative of general stress and acute toxicity, but also a range of more specific types of toxicity, including reproductive toxicity. […]
as §1, §2, §3, §4, §5
Subsequently, the luciferase signal was measured in a luminometer (InfinitePro coupled to a Connect Stacker, both TECAN). In order to be able to detect receptor antagonism, several assays were also performed in antagonistic mode. The assay procedure was as described above, with the only exception that the EC50 concentration of the reference agonist was present during the exposure.
The luminometer data was analysed as follows; the average of the triplicate wells was determined, and the average blank (DMSO) value was subtracted. […] For antagonist- and cytotoxicity experiments, PC20 values were determined instead, which was defined […]

As usually defined, the logP is a log measure of how a compound divides between an organic and an aqueous phase.

Turning to `CCCCN(CC)C(=O)CCC(=O)N(CC)CCCC` [EBSA, N,N′‐diethyl‐N,N′‐dibutylsuccindiamide], in data set [1], the logP turned out to be 2.72. The “LEC TRβ” value on TRβ [2] is reported as “–”. On TRβ [3], the “LEC TRβ‐anti” value is “–”. The “LEC TCF” value in the data set with TCF is “–”.

Consider `CCCCN(CCCC)C(=O)CCC(=O)N(CCCC)CCCC` [TBSA, N,N,N′,N′‐tetrabutylsuccindiamide], for which the logP in data set [1] amounted to 3.77. In addition, the “LEC TRβ” value at TRβ [2] is reported as “–”. In addition, at TRβ [3], the “LEC TRβ‐anti” value is reported as “–”. Further, the “LEC TCF” value with TCF was “–”.

Turning to `CCCCN(C)C(=O)CCC(=O)N(C)CCCC` [MBSA, N,N′‐dimethyl‐N,N′‐dibutylsuccindiamide], the logP in data set [1] was 1.65. The “LEC TRβ” value on TRβ [2] was “–”. Also, the “LEC TRβ‐anti” value on TRβ [3] was “–”. Further, the “LEC TCF” value with TCF is given as “–”.

For the compound `CCCCN1CCCC1=O` [NBP, N‐Butylpyrrolidinone, reference compound], the logP in data set [1] worked out at 0.99. The “LEC TRβ” value on TRβ [2] is recorded as “–”. At TRβ [3], the “LEC TRβ‐anti” value is on record as “–”. The “LEC TCF” value in the data set on TCF is given as “–”.

As to `CN1CCCC1=O` [NMP, N‐methyl‐2‐pyrrolidone, reference compound], the “LEC TRβ” value at TRβ [2] is recorded as “–”. For the same compound, the “LEC TRβ‐anti” value at TRβ [3] is “–”. Also, the “LEC TCF” value in the data set with TCF is listed as −2.1 Log M.

The record behind these values is paper PMC7318222, “A Family of Water‐Immiscible, Dipolar Aprotic, Diamide Solvents from Succinic Acid” (Chemsuschem, 2020).
